As a reminder, the Ki is the dissociation constant of the complex between target and ligand, obtained from inhibition or displacement. The term Kd denotes the free concentration of one partner at which half of the binding sites on the other are occupied at equilibrium, for simple one-to-one binding. Low readings indicate a tighter complex, high ones a looser complex.

The source of these data is paper PMC11099021, “Mycobacterial biotin synthases require an auxiliary protein to convert dethiobiotin into biotin” (Nature Communications, 2024).

One experiment deals with T1, BioB.ec (Escherichia coli, UniProt P12996).
T1 sequence (P12996 1-346): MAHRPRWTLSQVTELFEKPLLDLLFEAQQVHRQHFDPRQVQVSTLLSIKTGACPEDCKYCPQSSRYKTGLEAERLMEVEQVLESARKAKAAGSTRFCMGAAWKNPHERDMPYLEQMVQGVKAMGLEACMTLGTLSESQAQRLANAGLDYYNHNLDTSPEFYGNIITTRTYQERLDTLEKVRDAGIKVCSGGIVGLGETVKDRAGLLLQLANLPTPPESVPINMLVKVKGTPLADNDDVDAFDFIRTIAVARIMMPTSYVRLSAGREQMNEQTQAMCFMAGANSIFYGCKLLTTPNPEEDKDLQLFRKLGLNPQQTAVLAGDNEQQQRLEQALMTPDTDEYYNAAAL
The experiment is described as follows: biotin formation by LC-MS. Format: biochemical. The note with it: 100 µM DTB, 100 µM SAM; FldA/FNR/NADPH, MtnN; pH 8.0; 37 °C; anaerobic; without BsaP.

Another experiment has as its target BioB.tb-BsaP (Mycobacterium tuberculosis, UniProt P9WPQ7). Kind of experiment: biotin formation by LC-MS, Morrison fit. Format: biochemical. An excerpt:
biotin formation by LC-MS, Morrison fit on BioB.tb-BsaP | acidomycin is indeed a potent inhibitor of BioB.tb displaying an inhibition constant Ki of […]

Another experiment deals with T2, BsaP (Mycobacterium tuberculosis, UniProt P9WLT6).
T2 chain: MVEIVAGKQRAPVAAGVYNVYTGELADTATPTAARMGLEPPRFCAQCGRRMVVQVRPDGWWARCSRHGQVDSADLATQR

For `C[C@@H]1NC(=O)N[C@@H]1CCCCCC(=O)O` [DTB], the “biotin formation by LC-MS” value at BioB.ec is listed as “No difference in biotin production was observed when BsaP was added to BioB.ec”.
Regarding `O=C(O)CCCCC[C@@H]1NC(=O)CS1` [acidomycin], at BioB.tb-BsaP, the Ki was 0.11 µM.

B1: BioB (protein)
chain: TQAATRPTNDAGQDGGNNSDILVVARQQVLQRGEGLNQDQVLAVLQLPDDRLEELLALAHEVRMRWCGPEVEVEGIISLKTGGCPEDCHFCSQSGLFASPVRSAWLDIPSLVEAAKQTAKSGATEFCIVAAVRGPDERLMAQVAAGIEAIRNEVEINIACSLGMLTAEQVDQLAARGVHRYNHNLETARSFFANVVTTHTWEERWQTLSMVRDAGMEVCCGGILGMGETLQQRAEFAAELAELGPDEVPLNFLNPRPGTPFADLEVMPVGDALKAVAAFRLALPRTMLRFAGGREITLGDLGAKRGILGGINAVIVGNYLTTLGRPAEADLELLDELQMPLKALNASL
Regarding B1, in the experiment with BsaP, the Kd was 0.95 µM.
